In US9242009B2, “Compositions and methods to treat neurodegenerative diseases” (The General Hospital Corporation, priority 2012, dated 2016):

Tests used:
SH-SY5Y cells [1] = experiment: Intracellular sulfide levels in SH-SY5Y cells (HPLC); type: cell-based, Human; conditions: 20 μM, SH-SY5Y
Experimental: Human neuroblastoma SH-SY5Y cells were cultured in Eagle's medium/Ham's F-12 50/50 Mix (DMEM/F12, Cellgro by Mediatech, Inc.) supplemented with 10% fetal bovine serum (FBS) and 1% penicillin/streptomycin. The cells were seeded into 96 well plates (2×10^4 cells per well) for OGD and measurements of toxicity, 6 cm dishes (5×10^5 cells per dish) for measurements of sulfide and reduced-glutathione (GSH), or 10 cm dishes (1×10^6 cells per dish) for measurements of intracellular calcium. Cell culture medium was replaced every 2 days, and the cultures were maintained at 37° C. in 95% air/5% CO2 in a humidified incubator. Cells were used after reaching 80% confluent.
Concentration of free sulfide in SH-SY5Y cells was measured using high performance liquid chromatography (HPLC) (Tokuda et al. (2012) Antioxidants & Redox Signaling). Briefly, SH-SY5Y cells were seeded into 6 cm dishes (5×10^5 cells per dish). After being 80% confluent, 20 μM H2S donor was added to the dish and incubated at 37° C. Cells were washed with ice-cold Tris-HCl (100 mM, PH 9.5, DTPA 0.1 mM) buffer, scraped, transferred to microfuge tubes, and centrifuged. MBB (10 mM in acetonitrile, 50 μl) was added to 100 μl of supernatant. After 30 minutes of incubation at room temperature in dark, 50 μl of 200 mM 5-sulfosalicylic acid (SSA) was added. After centrifugation, supernatant was analyzed by HPLC. For sulfide levels in medium, after centrifugation, supernatant was used for MBB reaction as above.
In contrast, incubation of SH-SY5Y cells with S-memantine increased intracellular sulfide level more markedly than incubation with ACS48 at all time points after addition (˜10 fold at 4 hours, P<0.001 by two-way ANOVA with Bonferroni post-test). In a separate experiment, we examined whether or not incubation with memantine itself or incubation with ACS48 and memantine would affect intracellular sulfide levels in SH-SY5Y cells.

SH-SY5Y cells [2] = experiment: Oxygen-glucose deprivation (OGD) of SH-SY5Y cells, viability by LDH release, MTT and CV assays; type: cell-based, Human
Experimental: OGD for SH-SY5Y was performed by placing cells in a hypoxia chamber ([…] Technologies Inc.) for 15 hours, followed by 24 hours of reoxygenation as previously reported (FIG. 3A) (Serra-Pérez et al. (2008) Journal of Neurochemistry 106, 1237-1247). Briefly, medium was replaced with glucose-free RPMI 1640 with L-glutamine (Cellgro by Mediatech, Inc), deoxygenated with anaerobic gas mixture (93% N2-5% CO2-2% H2) for 30 minutes before use. Cells were then placed in a hypoxia chamber, flushed with anaerobic gas mixture (93% N2-5% CO2-2% H2) and incubated at 37° C. After 15 hours of hypoxia, medium was replaced with DMEM/F12 and incubated for 24 hours at 37° C. in 95% air/5% CO2 in a humidified incubator.
A microtiter plate containing cells was centrifuged at 250×g for 10 minutes and the supernatant was used for LDH measurement with LDH Cytotoxicity Detection Kit (Roche). After aspirating the medium, remaining cells were washed with PBS, then, 100 μl of 1% Triton-X was added to each well, followed by incubation at 37° C. for 30 minutes. Medium and lysates were used for LDH measurement at wavelength 492 nm. Percentage of released LDH was calculated with following formula: {LDH (medium)/LDH (medium+cell)×100}. Average value of control (cells without OGD) was deducted as background.
Ten μl of thiazolyl blue tetrazolium bromide solution (5 mg/ml in PH 7.4 PBS) was added to each well containing 100 μl of medium and cells, followed by incubation at 37° C. for 4 hours in the dark. Isopropanol (100 μl, 0.04 N HCl) was added to dissolve blue dye. After dissolved completely, absorbance was measured with plate-reader (Synergy 2, BioTek Instrument) at test wavelength 570 nm and reference wavelength 670 nm. Cell viability was determined by absorbance at 570 nm and reported as ratio to control cells (without OGD).
After aspirating culture medium, cells were fixed and stained by 0.5% CV in 95% (v/v) ethanol for 5 minutes, then washed by tap water several times. After taking photographs, 1% sodium dodecylsulfate solution was added to each well to elute blue dye. Absorbance was measured with plate-reader at 595 nm of wavelength. Values were shown as ratio to control (cells without OGD).

[3] = system: murine primary cortical neurons; experiment: Intracellular calcium level [Ca2+]i (Fura-2/AM) with or without glutamate; type: cell-based, mice; conditions: 20 μM
[4] = system: murine primary cortical neurons; experiment: Oxygen-glucose deprivation (OGD) of murine primary cortical neurons, LDH release; type: cell-based, mice
Experimental: Primary neuronal cultures were prepared from the cortex of embryonic day 15 C57BL6J mice. In brief, brains were harvested and the hemispheres were dissected under a microscope. The cortical neurons were dissociated in Neurobasal medium (Gibco) with B27 supplement (antioxidant plus, Gibco). The cells were seeded into 24 well plates coated with poly-D-lysine (Becton Dickinson Labware, 2×10^5 cells per well), followed by the medium-change with fresh one on the next day. The half of culture medium was replaced with Neurobasal medium witn B27 supplement (antioxidant minus) every other day, and the cultures were maintained at 37° C. in 95% air/5% CO2 in a humidified incubator. Cells were used for experiments 11 days after seeding.
OGD for primary cortical neurons was performed with the similar protocol as above (FIG. 3B). Briefly, the culture medium was replaced with deoxygenated Neurobasal medium without glucose, and then placed in the hypoxic chamber for 2.5 hours. After OGD, the medium was replaced with Neurobasal medium with glucose and incubated for 21 hours at 37° C. in 95% air/5% CO2 in a humidified incubator. […]
A microtiter plate containing cells was centrifuged at 250×g for 10 minutes and the supernatant was used for LDH measurement with LDH Cytotoxicity Detection Kit (Roche). […] Percentage of released LDH was calculated with following formula: {LDH (medium)/LDH (medium+cell)×100}. […]

[5] = time- and dose-range studies, SH-SY5Y

C[C@]12C[C@@H]3C[C@](C)(C1)C[C@@](NC(=O)c1ccc(-c4cssc4=S)cc1)(C3)C2 [S-memantine, N-((1r,3R,5S,7r)-3,5-dimethyladamantan-1-yl)-4-(3-thioxo-3H-1,2-dithiol-4-yl)-benzamide]
Intracellular sulfide levels (SH-SY5Y cells [1]; 37° C.): increased intracellular sulfide levels
Intracellular sulfide level relative to incubation with ACS48 (SH-SY5Y cells [1]; at 4 hours): ~10 fold
Cell viability after OGD (LDH release, MTT, CV assays) (SH-SY5Y cells [2]; 50 μM added 8 hours after the end of OGD, 15 hours OGD, 24 hours reoxygenation): improved the viability of SH-SY5Y cells more markedly than did addition of ACS48 or memantine
Cell viability after OGD (SH-SY5Y cells [2]; incubation starting at any time between pre-OGD and up to 8 hours after OGD): improved
Most effective dose to improve viability after OGD (SH-SY5Y cells [2]; [5]): 50 µM
Most effective time point of addition after the end of OGD (SH-SY5Y cells [2]; [5]): 8 h
Glutamate-induced calcium accumulation ([3]; 100 μM glutamate): suppressed calcium accumulation
Magnitude of calcium accumulation compared with Na2S or ACS48 ([3]; without glutamate): markedly smaller than that induced by Na2S or ACS48
Neuroprotective effect after OGD (LDH release) ([4]; 50 μM added 30 minutes after end of OGD, 2.5 hours OGD, 21 hours reoxygenation): more robust neuroprotective effects compared to ACS48 or memantine
Cell viability after OGD ([4]; incubation starting at 30 minutes or 2 hours after OGD): improved
